What was measured:
[1] = molecular target: recombinant poly(ADP-ribose) polymerase 1 (PARP1) (Homo sapiens, UniProt P09874); assay: PARP1 chemiluminescent assay; assay type: biochemical; settings: PARP1 enzyme activity, chemiluminescence, 40 ng enzyme/well
Experimental: The solution of recombinant poly(ADP-ribose) polymerase 1 and 2 (PARP1 and PARP2) (40 ng enzyme/well) and the compounds to be tested were mixed, respectively. The solutions were added to a 96-well plate coated with histone mixture, incubated at room temperature for 1 h, then 50 μL 0.3 ng/mL Streptavidin-HRP was added to each well. The plates were incubated for 30 minutes at room temperature. Finally, the plates were treated with streptavidin-HRP followed by addition of the ELISA ECL substrate to produce chemiluminescence that can be measured using a chemiluminescence reader. Inhibition of the tested compound to PARP1/2 enzyme activity was calculated according to the following formula. [formula] IC50 value is obtained by fitting the s-shaped dose response curve equation by using XL Fit software.

[2] = molecular target: recombinant poly(ADP-ribose) polymerase 2 (PARP2) (Homo sapiens, UniProt Q9UGN5); assay: PARP2 chemiluminescent assay; assay type: biochemical; settings: PARP2 enzyme activity, chemiluminescence, 40 ng enzyme/well
Sequence of recombinant poly(ADP-ribose) polymerase 2 (PARP2) (Q9UGN5 whole entry): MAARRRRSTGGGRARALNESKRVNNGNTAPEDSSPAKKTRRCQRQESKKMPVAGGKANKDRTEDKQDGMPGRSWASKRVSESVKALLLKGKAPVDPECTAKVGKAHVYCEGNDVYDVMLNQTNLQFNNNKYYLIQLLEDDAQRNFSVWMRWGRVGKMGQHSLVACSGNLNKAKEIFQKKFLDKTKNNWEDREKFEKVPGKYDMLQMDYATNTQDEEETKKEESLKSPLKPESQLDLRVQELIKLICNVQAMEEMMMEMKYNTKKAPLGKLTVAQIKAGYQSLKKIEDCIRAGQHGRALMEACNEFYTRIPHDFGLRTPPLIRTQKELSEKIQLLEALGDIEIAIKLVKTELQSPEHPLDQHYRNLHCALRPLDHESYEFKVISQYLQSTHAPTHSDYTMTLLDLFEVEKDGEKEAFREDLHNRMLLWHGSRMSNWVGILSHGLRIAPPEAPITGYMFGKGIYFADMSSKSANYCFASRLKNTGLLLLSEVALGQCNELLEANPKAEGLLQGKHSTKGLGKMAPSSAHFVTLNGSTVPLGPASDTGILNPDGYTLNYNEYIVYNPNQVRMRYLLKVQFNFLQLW

MDA-MB-436 cells = assay: Growth inhibition assay against BRCA mutant human breast cancer MDA-MB-436 cell line (CCK-8, 7 days); assay type: cell-based; settings: 168 h, MDA-MB-436, 7 days, read-out: IC50 (nM), proliferation of human breast cancer cells MDA-MB-436
Method in brief: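 Seeded 3000 cells/well overnight, then exposed to test compound (0.10% DMSO control) for 7 days at 37 °C, 5% CO2, with compound-containing medium changed on day 4. CCK-8 added for 4 h; OD = A450 − A650. Survival % relative to DMSO after background subtraction, plotted against concentration for IC50.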

PDE3A = molecular target: T1, PDE3A (Homo sapiens, UniProt Q14432); assay: PDE3A fluorescence polarization (FP) assay; assay type: biochemical; settings: 2 nM PDE3A, 0.2 μM FAM-cAMP, read-out: IC50 (μM), PDE3A enzyme activity
T1 construct: purchased Sino Biological 11908-H20B1
T1 sequence (Q14432 669-1141 limits assumed): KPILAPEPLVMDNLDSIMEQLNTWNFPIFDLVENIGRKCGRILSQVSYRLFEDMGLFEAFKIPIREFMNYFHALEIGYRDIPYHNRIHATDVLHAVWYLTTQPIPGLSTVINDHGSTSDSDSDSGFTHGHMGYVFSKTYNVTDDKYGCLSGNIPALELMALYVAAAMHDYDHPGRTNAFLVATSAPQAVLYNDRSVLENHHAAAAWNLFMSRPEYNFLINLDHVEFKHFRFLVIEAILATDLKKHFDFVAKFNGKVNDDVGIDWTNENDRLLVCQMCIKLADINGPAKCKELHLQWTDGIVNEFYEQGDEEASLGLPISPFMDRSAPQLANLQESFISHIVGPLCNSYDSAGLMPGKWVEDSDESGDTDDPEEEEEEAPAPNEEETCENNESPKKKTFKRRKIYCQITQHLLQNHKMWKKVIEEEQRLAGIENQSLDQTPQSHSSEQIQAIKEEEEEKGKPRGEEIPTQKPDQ
Experimental: A PDE3A fluorescence polarization (FP) assay in a multi-step format was performed using black, round bottom 384-well plates (Corning, 4514). The testing compounds were serially diluted from stock solutions to 11 concentrations with a 3-fold dilution factor using DMSO. Fifty nL of compound dilutions was mixed with 5 μL of reaction buffer (10 mM Tris-HCl, pH 7.2, 10 mM MgCl2, 0.05% NaN3, 0.1% phosphate-free BSA) containing 0.2 μM FAM-cAMP (BPS, 60200) and 2 nM PDE3A (Sino Biological, 11908-H20B1) enzyme, and incubated for 60 min at 25° C. Afterwards, 15 μL binding agent mixture (Molecular Devices, R8124) was added to each well and the plate was incubated for 60 min at 25° C. The plate was loaded to a BMG PHERAstar FSX to read Fluorescence Polarization (FP) values at a setting of: Ex: 485 nm and Em: 520 nm. Emission light intensity with polarizers parallel (Em|) and emission light intensity with polarizers perpendicular (Em⊥) were recorded. The Polarization (mP) values were calculated using the following formula: mP=(SignalEm|−SignalEm⊥)/(SignalEm|+SignalEm⊥).
Data analysis: • 1) The inhibition % of a compound dose is calculated as:
[formula] • wherein mPMin and mPMax refer to the polarization readings in the condition of substrate only and substrate+enzyme, respectively. • 2) The IC50 values were calculated from non-linear curve fitting using following regression equation using a commercial curve fitting software GraphPad Prism 9.2.0.
wherein X refers to Log of compound concentration and Y refers to % Inhibition.
Table 3 summarize the inhibitory effects of compounds on PDE3A enzyme activity (IC50).

Sequence of recombinant poly(ADP-ribose) polymerase 1 (PARP1) (P09874 whole entry): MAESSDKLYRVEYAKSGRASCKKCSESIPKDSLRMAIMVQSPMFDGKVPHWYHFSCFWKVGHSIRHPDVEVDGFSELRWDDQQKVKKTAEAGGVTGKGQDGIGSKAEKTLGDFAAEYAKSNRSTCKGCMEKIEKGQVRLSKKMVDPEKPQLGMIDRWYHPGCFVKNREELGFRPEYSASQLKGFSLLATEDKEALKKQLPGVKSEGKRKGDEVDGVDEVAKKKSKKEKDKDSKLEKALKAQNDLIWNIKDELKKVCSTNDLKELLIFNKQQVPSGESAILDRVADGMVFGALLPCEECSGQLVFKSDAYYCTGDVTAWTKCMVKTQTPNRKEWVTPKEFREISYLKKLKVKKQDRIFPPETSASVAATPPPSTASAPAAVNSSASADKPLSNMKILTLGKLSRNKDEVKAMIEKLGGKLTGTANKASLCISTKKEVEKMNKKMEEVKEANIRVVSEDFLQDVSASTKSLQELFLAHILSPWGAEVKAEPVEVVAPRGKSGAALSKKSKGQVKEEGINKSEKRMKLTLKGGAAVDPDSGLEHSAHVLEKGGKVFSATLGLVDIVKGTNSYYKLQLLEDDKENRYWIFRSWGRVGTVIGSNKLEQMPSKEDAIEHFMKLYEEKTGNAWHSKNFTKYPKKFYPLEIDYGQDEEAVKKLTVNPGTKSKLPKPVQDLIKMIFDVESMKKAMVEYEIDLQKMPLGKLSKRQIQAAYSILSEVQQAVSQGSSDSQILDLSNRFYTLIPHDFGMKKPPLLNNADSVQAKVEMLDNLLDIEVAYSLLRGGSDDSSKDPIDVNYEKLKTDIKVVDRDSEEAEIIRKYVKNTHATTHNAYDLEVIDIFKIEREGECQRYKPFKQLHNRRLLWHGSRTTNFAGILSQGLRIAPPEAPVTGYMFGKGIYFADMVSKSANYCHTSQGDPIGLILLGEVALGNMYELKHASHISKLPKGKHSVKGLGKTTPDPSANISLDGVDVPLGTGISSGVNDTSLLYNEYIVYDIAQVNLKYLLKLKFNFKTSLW

| SMILES | IC50 [1] [nM] | IC50 [2] [nM] | IC50 (MDA-MB-436 cells) [nM] | IC50 (PDE3A) [µM] |
| --- | --- | --- | --- | --- |
| CNC(=O)c1ccc(-n2cc3c(n2)CN(Cc2ccc4c([nH]c(=O)c5c(C(F)(F)F)cnn54)c2F)C3)cn1 [Example 25, 5-(5-((6-fluoro-4-oxo-3-(trifluoromethyl)-4,5-dihydropyrazolo[1,5-a]quinoxalin-7-yl)methyl)-5,6-dihydropyrrolo[3,4-c]pyrazol-2(4H)-yl)-N-methylpicolinamide] | 0.26 | 21 | 4.75 |  |
| CNC(=O)c1ccc(-c2nc3c(s2)CN(Cc2ccc4c([nH]c(=O)c5c(F)cnn54)c2F)C3)cn1 [Example 42, 5-(5-((3,6-difluoro-4-oxo-4,5-dihydropyrazolo[1,5-a]quinoxalin-7-yl)methyl)-5,6-dihydro-4H-pyrrolo[3,4-d]thiazol-2-yl)-N-methylpicolinamide] |  | 118 | 6.04 | > 30 |
| CNC(=O)c1ccc(-n2cc3c(c2)CN(Cc2ccc4c([nH]c(=O)c5c(F)cnn54)c2F)C3)cn1 [Example 48, 5-(5-((3,6-difluoro-4-oxo-4,5-dihydropyrazolo[1,5-a]quinoxalin-7-yl)methyl)-5,6-dihydropyrrolo[3,4-c]pyrrol-2(4H)-yl)-N-methylpicolinamide] |  | 48 | 0.38 | > 30 |
| CNC(=O)c1ccc(-n2cc3c(n2)CN(Cc2ccc4c([nH]c(=O)n5cc(C)nc45)c2F)C3)c(F)n1 [Example 51, 6-fluoro-5-(5-((7-fluoro-2-methyl-5-oxo-5,6-dihydroimidazo[1,2-c]quinazolin-8-yl)methyl)-5,6-dihydropyrrolo[3,4-c]pyrazol-2(4H)-yl)-N-methylpicolinamide] |  | > 10000 | 1.51 | > 30 |
| CNC(=O)c1ccc(-n2cc3c(n2)CN(Cc2ccc4c([nH]c(=O)c5occc54)c2F)C3)c(F)n1 [Example 54, 6-fluoro-5-(5-((6-fluoro-4-oxo-4,5-dihydrofuro[2,3-c]quinolin-7-yl)methyl)-5,6-dihydropyrrolo[3,4-c]pyrazol-2(4H)-yl)-N-methylpicolinamide] |  | 255 | 1.47 | > 30 |
| CCNC(=O)c1ccc(-n2cc3c(n2)CN(Cc2ccc4c([nH]c(=O)c5occc54)c2F)C3)c(F)n1 [Example 55, N-ethyl-6-fluoro-5-(5-((6-fluoro-4-oxo-4,5-dihydrofuro[2,3-c]quinolin-7-yl)methyl)-5,6-dihydropyrrolo[3,4-c]pyrazol-2(4H)-yl)picolinamide] |  | 403 | 0.81 | > 30 |
| CCNC(=O)c1ccc(-n2cc3c(n2)CN(Cc2ccc4c([nH]c(=O)c5cc(F)nn54)c2F)C3)c(F)n1 [Example 57, 5-(5-((2,6-difluoro-4-oxo-4,5-dihydropyrazolo[1,5-a]quinoxalin-7-yl)methyl)-5,6-dihydropyrrolo[3,4-c]pyrazol-2(4H)-yl)-N-ethyl-6-fluoropicolinamide] |  | > 10000 | 1.56 | > 30 |
